Assay results taken from US7354754B2, “Microorganism sensitive to lysozyme” (National Institute of Advanced Industrial Science and …, priority 2002, dated 2008).

Tests used:
Assay type in all cases: cell-based
[1] = system: Rhodococcus erythropolis strain L-88; assay: Minimum growth inhibition concentration on LB agar medium, strain L-88; details: 30° C., 2 days
Excerpt: (§1) A microorganism of the genus Rhodococcus according to the present invention is a mutant microorganism of the genus Rhodococcus, which has a higher sensitivity to lysozyme than a wild-type microorganism of the genus Rhodococcus. The microorganism of the genus Rhodococcus is not limited to a specific species and includes Rhodococcus erythropolis, Rhodococcus fascians, and Rhodococcus opacus. The wild-type microorganism of the genus Rhodococcus refers to a microorganism belonging to the genus Rhodococcus and having no genetic mutation, for example, Rhodococcus erythropolis strain JCM 3201. More specifically, the microorganism of the genus Rhodococcus according to the present invention having a higher sensitivity to lysozyme is a mutant derived from a wild-type microorganism of the genus Rhodococcus as a parent strain, and having an increased sensitivity to lysozyme compared to the parent strain. The phrase “having an increased sensitivity to lysozyme” means that cell lysis may occur at a low lysozyme concentration. […] Alternatively, the degree of sensitivity to lysozyme can be determined by adding lysozyme to a predetermined concentration of a microorganism of the genus Rhodococcus, and monitoring a change in absorbence while culturing. […]

[2] = system: Rhodococcus erythropolis strain L-65; assay: Minimum growth inhibition concentration on LB agar medium, strain L-65; details: 30° C., 2 days
Excerpt: as §1

[3] = system: Rhodococcus erythropolis strain JCM 3201; assay: Minimum growth inhibition concentration on LB agar medium, strain JCM 3201; details: strain JCM 3201 (wild type), 30° C., 2 days
Excerpt: as §1

[4] = system: Rhodococcus erythropolis wild type and mutant strain; assay: Comparison of wild type and mutant strain for sensitivity to antibiotics; details: determined similarly to the ampicillin test
Method: The sensitivity of Rhodococcus erythropolis strain L-65 and L-88 to ampicillin was determined in the same manner as in Example 1. To explain more specifically, the bacterial cells of each strain were inoculated in LB medium and cultured with shaking at 30° C. A part of the culture solution was taken in the middle of logarithmic growth period and diluted with fresh LB medium so as to contain 1×10^5, 1×10^4, 1×10^3, 1×10^2, and […] cells in 10 μl of the LB medium. The diluted culture solutions thus prepared were dropped onto each of LB agar mediums containing lysozyme in concentrations of 15, 10, 1, and 0.1 μg/ml. After the mediums were cultured at 30° C. for 2 days and the presence or absence of bacterial cells grown on the mediums was checked. In this manner, the minimum growth inhibition concentration was determined (Table 2).

[5] = system: Rhodococcus erythropolis strain L-88; assay: Turbidity change of culture solution by addition of lysozyme, strain L-88; details: lysozyme 12.5 μg/ml added at OD600 about 0.2, LB medium, 30° C.
Method: (§2) To 100 ml of LB medium, Rhodococcus erythropolis strain L-65 was inoculated and cultured with shaking at 30° C. The absorbence (OD600) of the culture solution was measured at an absorption wavelength of 600 nm every hour from the beginning of the logarithmic growth period. When OD600 reached about 0.2, the volume of the culture solution was divided into halves. To one of them, lysozyme was added to a final concentration of 12.5 μg/ml. No lysozyme was added to the other. While both solutions were further cultured continuously, the absorbence was measured. The growth profiles of Rhodococcus erythropolis strain L-65 culture solutions with Lysozyme (12.5 μg/ml) and without lysozyme were shown by absorbence at 600 nm. When OD600 reached about 0.2, lysozyme was added (Indicated by the arrow in the figure). […] This is considered because bacterial cell lysis was caused by lysozyme.
The same operation as in Example 2 was performed by use of Rhodococcus erythropolis strain L-88. The growth profiles of culture solutions of Rhodococcus erythropolis strain L-88 with lysozyme (12.5 μg/ml) and without lysozyme were shown by absorbence at 600 nm. When OD600 reached about 0.2, lysozyme was added (Indicated by the arrow in the figure). […] This is considered because bacterial cell lysis was caused by lysozyme.

[6] = system: Rhodococcus erythropolis strain L-65; assay: Cell lysis with lysozyme for extraction of recombinant PIP protein, strain L-65; details: lysozyme 1 mg/ml, 37° C., one hour, nondenaturation buffer
Excerpt: A plasmid (pHN170, Nakashima and Tamura: the full length sequence is represented by SEQ ID No: 2) was constructed such that it could self-replicate in a bacterial cell of Rhodococcus erythropolis and could be induced by thiostreptone to express a proline iminopeptidase (hereinafter referred to as “PIP”) protein (T. Tamura et al., FEBS Lett. 398, 101-105 (1996)) having a 6× histidine tag at the C terminal. This plasmid was introduced into Rhodococcus erythropolis strain L-65 by an electroporation method. Transformants were screened on LB agar medium containing tetracycline (20 μg/ml). The transformants were inoculated on 4 ml of LB medium containing tetracycline (8 μg/ml) and cultured with shaking at 30° C. until the absorbence at an absorption wavelength of 600 nm reached 0.8. The entire culture solution was added to 40 ml of LB medium containing thiostreptone (1 μg/ml) and cultured with rotation in a vaned flask for 16 hours. After PIP protein was induced to express, bacterial cells were centrifugally collected at 1,500×g for 15 minutes. […] As a result, a clear band was detected near the molecular weight (34.3 KDa), which was predicted from the amino acid sequence of the 6× histidine-fused PIP protein (FIG. 5). […]

[7] = system: Rhodococcus erythropolis strain L-65; assay: Turbidity change of culture solution by addition of lysozyme, strain L-65; details: lysozyme 12.5 μg/ml added at OD600 about 0.2, LB medium, 30° C.
Method: as §2

[8] = system: Rhodococcus erythropolis strain JCM 3201; assay: Turbidity change of culture solution by addition of lysozyme, strain JCM 3201; details: lysozyme 12.5 μg/ml added at OD600 about 0.2, LB medium, 30° C.
Method: as §2
The same operation as in Example 2 was performed by use of Rhodococcus erythropolis strain JCM 3201. The growth profiles of culture solutions of Rhodococcus erythropolis strain JCM 3201 with lysozyme (12.5 μg/ml) and without lysozyme were shown by absorbence at 600 nm. When OD600 reached about 0.2, lysozyme was added (Indicated by the arrow in the figure).

[9] = system: Rhodococcus erythropolis strain JCM 3201; assay: Cell lysis with lysozyme for extraction of recombinant PIP protein, strain JCM 3201; details: lysozyme 1 mg/ml, 37° C., one hour
[10] = system: Rhodococcus erythropolis strain L-88; assay: Cell lysis with lysozyme for extraction of recombinant PIP protein, strain L-88; details: lysozyme 1 mg/ml, 37° C., one hour, nondenaturation buffer

CC1(C)S[C@@H]2[C@H](NC(=O)[C@H](N)c3ccccc3)C(=O)N2[C@H]1C(=O)O [ampicillin, reference compound]
Minimum growth-inhibiting ampicillin concentration [1]: 1 µg/mL | Minimum growth-inhibiting ampicillin concentration [2]: 1 µg/mL | Minimum growth-inhibiting ampicillin concentration [3]: 15 µg/mL

O=C(N[C@H](CO)[C@H](O)c1ccc([N+](=O)[O-])cc1)C(Cl)Cl [chloramphenicol]
Difference in sensitivity between wild type and mutant strain [4]: no significant difference was observed

lysozyme: lysozyme derived from egg-white (manufactured by Sigma), cell-wall lytic enzyme
Change of absorbence (OD600) of culture solution after addition of lysozyme [5]: a sharp decrease in absorbence was observed | Cell lysis by lysozyme treatment (PIP band in supernatant, SDS polyacrylamide gel electrophoresis) [6]: Cells were lysed completely | Change of absorbence (OD600) of culture solution after addition of lysozyme [7]: a sharp decrease in absorbence was observed | Minimum growth-inhibiting lysozyme concentration [1]: 12.5 µg/mL | Change of absorbence (OD600) of culture solution after addition of lysozyme [8]: the same tendency of growth was observed | Cell lysis by lysozyme treatment (PIP band in supernatant, SDS polyacrylamide gel electrophoresis) ([9]; strain JCM 3201, nondenaturation buffer, no ampicillin): cell lysis rarely takes place | Cell lysis by lysozyme treatment (PIP band in supernatant, SDS polyacrylamide gel electrophoresis) ([9]; strain JCM 3201 treated with ampicillin 600 μg/ml for 2 hours before cell collection): cell lysis takes place even in nondenaturation conditions | Minimum growth-inhibiting lysozyme concentration [3]: >400 µg/mL | Cell lysis by lysozyme treatment (PIP band in supernatant, SDS polyacrylamide gel electrophoresis) [10]: The same phenomenon as in the case of bacterial stain L-65 is considered

thiostreptone
Difference in sensitivity between wild type and mutant strain [4]: no significant difference was observed
